Reference: patent US20250179092A1, “PYRIDO[1,2-A]PYRIMIDIN-4-ONE DERIVATIVES” (Hoffmann-La Roche Inc., priority 2022, published 2025)
pEC50: −log10 of the molar value.

tested on: mutant HTT protein (mHTT); test: Homogeneous Time Resolved Fluorescence (HTRF) assay for HTT lowering; format: cell-based; conditions: reduction of mHTT in Huntington patient human cells (GENEAe020-A cell line), 48 hours incubation, mean from three replicates
Experimental: Homogeneous Time Resolved Fluorescence for HTT Lowering
The HTRF assay was adapted from Weiss et al. (Analytical Biochemistry Volume 395, Issue 1, 1 Dec. 2009, Pages 8-15 and Analytical Biochemistry Volume 410, 2011, Pages 304-306) to cells from GENEAe020-A cell line (https.//hpscreg.eu/cell-line/GENEAe020-A).
Compounds were tested for the effect of mutant HTT levels in Huntington patient human cells (GENEAe020-A cell line) using Homogeneous Time Resolved Fluorescence (HTRF) directed towards mutant HTT protein (mHTT). The GENEAe020-A cell line was derived by Genea Biocells from human blastocysts of HD donors. After assessing viability, cells were plated into 384 well collagen coated plates in growth media. Once cells adhered, media was removed and test compounds dissolved in DMSO were diluted with buffer solution and added to the adherent cells. Controls included experiments with no cells, DMSO with no compound, and Hsp90 inhibitor control. Cells were incubated with compounds and controls for 48 hours. Then, the cells were lysed and transferred to an assay plate containing HTRF labeled monoclonal antibodies developed by Paul Patterson (Ko et al., Brain Research Bulletin, Volume 56, Numbers 3 and 4, 2001, Pages 319-329) which recognize specific areas of the HTT protein. The terbium labeled “donor” antibody (2B7) binds to the N-terminus of the HTT protein and the Alexa488 labeled “acceptor” antibody (MW1) is specific for the polyglutamine region of the protein. Binding of the acceptor labeled antibody is more efficient for the extended polyglutamine repeats of mutant HTT protein which translates into a signal boost which enables the specific measurement of mutant HTT protein level. The HTRF donor and acceptor detection reagents were incubated with the cell lysate and the ratio between the signals of the two fluorophores is indicative of the relative quantities of mHTT.

How did the pEC50 turn out when `Cc1cn2nc(-c3cc(=O)n4cc(C5CCNC6(CC6)C5)ccc4n3)cc(C)c2n1` (racemic) [Example 1, rac-7-(4-azaspiro[2.5]octan-7-yl)-2-(2,8-dimethylimidazo[1,2-b]pyridazin-6-yl)pyrido[1,2-a]pyrimidin-4-one] was run?
Its pEC50 is 7.51.

With `COc1cc(-c2cc(=O)n3cc(C4CCNC5(CC5)C4)ccc3n2)nn2cc(C)nc12` (racemic) [Example 2, rac-7-(4-azaspiro[2.5]octan-7-yl)-2-(8-methoxy-2-methyl-imidazo[1,2-b]pyridazin-6-yl)pyrido[1,2-a]pyrimidin-4-one] as the molecule, how does the pEC50 read?
The pEC50 was 7.68.

How did the pEC50 turn out when `Cc1nc2c(C)cc(-c3cc(=O)n4cc(C5CCNC6(CC6)C5)ccc4n3)nc2o1` (racemic) [Example 4, rac-7-(4-azaspiro[2.5]octan-7-yl)-2-(2,7-dimethyloxazolo[5,4-b]pyridin-5-yl)pyrido[1,2-a]pyrimidin-4-one] was run?
Its pEC50 is 7.31.

With `O=c1cc(-c2ccc3nc(Cl)cn3n2)nc2ccc(C3CCNC4(CC4)C3)cn12` (racemic) [Example 5, rac-7-(4-azaspiro[2.5]octan-7-yl)-2-(2-chloroimidazo[1,2-b]pyridazin-6-yl)pyrido[1,2-a]pyrimidin-4-one] as the molecule, how does the pEC50 read?
Its pEC50 is 6.59.

`Cc1cn2nc(-c3cc(=O)n4cc(C5CCNC6(CC6)C5)ccc4n3)cc(C(F)(F)F)c2n1` (racemic) [Example 3, rac-7-(4-azaspiro[2.5]octan-7-yl)-2-[2-methyl-8-(trifluoromethyl)imidazo[1,2-b]pyridazin-6-yl]pyrido[1,2-a]pyrimidin-4-one] was tested. Which pEC50 did it give?
Its pEC50 is 7.40.
